These results are taken from ChEMBL document CHEMBL5356939, “Research progress of anticancer drugs targeting CDK12” (RSC Med Chem, 2023).

For assay [1], the target named is T1, Cyclin-dependent kinase 12 (Homo sapiens, UniProt Q9NYV4). The assay is described as follows: Inhibition of CDK12 (unknown origin).
The target in assay [2] is T2, Cyclin-dependent kinase 7 (Homo sapiens, UniProt P50613). The assay is described as follows: Inhibition of CDK7 (unknown origin).
In assay [3] the target is Cyclin-dependent kinase 13 (Homo sapiens, UniProt Q14004). The assay is described as follows: Inhibition of CDK13 (unknown origin).
The target in assay [4] is T3, Protein cereblon/Cyclin-dependent kinase 12 (Homo sapiens, UniProt Q96SW2+Q9NYV4). The assay is described as follows: Protac activity at CRBN/CDK12 in human Jurkat cells assessed as […] measured after 6 hrs by Westernblot analysis. The assay is classed as cell-based.
T3 sequence (Q9NYV4 whole entry): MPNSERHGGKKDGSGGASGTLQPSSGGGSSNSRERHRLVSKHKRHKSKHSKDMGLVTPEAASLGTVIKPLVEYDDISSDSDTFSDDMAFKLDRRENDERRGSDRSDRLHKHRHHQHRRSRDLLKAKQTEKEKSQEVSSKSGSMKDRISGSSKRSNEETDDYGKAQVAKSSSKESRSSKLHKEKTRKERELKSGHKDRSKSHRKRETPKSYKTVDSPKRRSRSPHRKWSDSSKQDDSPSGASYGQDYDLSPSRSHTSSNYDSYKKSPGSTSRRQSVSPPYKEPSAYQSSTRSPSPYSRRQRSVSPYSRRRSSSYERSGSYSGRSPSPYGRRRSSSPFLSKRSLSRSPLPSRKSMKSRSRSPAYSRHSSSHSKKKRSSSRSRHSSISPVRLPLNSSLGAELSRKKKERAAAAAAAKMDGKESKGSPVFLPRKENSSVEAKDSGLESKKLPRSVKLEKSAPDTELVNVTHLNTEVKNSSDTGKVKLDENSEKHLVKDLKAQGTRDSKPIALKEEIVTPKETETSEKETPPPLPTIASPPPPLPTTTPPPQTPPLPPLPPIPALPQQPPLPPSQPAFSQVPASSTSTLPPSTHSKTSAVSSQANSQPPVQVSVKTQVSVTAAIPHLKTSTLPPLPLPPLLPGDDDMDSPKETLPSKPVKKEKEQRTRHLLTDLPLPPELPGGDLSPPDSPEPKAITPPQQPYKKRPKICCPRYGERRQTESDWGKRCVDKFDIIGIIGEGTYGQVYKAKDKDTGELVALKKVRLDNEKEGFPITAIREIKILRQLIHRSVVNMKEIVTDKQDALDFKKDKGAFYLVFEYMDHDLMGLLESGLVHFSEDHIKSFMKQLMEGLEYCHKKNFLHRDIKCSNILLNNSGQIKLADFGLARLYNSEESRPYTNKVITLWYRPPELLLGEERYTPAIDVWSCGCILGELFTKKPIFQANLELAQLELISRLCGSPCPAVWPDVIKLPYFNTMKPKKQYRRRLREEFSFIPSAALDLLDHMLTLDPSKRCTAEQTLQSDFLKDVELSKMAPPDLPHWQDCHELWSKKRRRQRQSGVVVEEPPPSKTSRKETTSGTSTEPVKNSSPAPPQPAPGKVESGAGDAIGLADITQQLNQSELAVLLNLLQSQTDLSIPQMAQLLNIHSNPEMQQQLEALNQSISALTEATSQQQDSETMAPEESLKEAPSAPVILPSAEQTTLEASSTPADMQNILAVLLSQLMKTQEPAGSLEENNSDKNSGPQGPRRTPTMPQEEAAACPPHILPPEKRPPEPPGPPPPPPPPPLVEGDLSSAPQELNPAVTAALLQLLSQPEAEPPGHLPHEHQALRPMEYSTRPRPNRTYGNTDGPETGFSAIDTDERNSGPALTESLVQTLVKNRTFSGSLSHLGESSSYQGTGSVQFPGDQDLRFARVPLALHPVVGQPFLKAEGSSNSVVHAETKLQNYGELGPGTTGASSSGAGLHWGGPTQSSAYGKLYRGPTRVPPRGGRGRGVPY
T3 sequence (Q96SW2 whole entry): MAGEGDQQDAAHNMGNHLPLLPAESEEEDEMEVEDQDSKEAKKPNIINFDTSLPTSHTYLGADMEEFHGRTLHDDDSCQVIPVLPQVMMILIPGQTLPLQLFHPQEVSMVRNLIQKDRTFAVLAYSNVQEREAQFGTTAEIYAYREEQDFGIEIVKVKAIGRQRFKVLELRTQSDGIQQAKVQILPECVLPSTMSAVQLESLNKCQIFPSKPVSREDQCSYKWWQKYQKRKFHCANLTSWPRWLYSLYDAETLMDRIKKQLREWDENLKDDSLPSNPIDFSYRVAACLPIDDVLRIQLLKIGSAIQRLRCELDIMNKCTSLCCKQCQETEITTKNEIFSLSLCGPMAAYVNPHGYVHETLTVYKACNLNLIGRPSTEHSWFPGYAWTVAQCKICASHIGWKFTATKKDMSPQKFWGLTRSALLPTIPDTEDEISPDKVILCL
For assay [5], the target named is Cyclin-dependent kinase 1 (Homo sapiens, UniProt P06493). The assay is described as follows: Inhibition of full length recombinant human CDK1 expressed in Insect cell in presence of ATP.
Sequence of Cyclin-dependent kinase 1 (P06493 whole entry): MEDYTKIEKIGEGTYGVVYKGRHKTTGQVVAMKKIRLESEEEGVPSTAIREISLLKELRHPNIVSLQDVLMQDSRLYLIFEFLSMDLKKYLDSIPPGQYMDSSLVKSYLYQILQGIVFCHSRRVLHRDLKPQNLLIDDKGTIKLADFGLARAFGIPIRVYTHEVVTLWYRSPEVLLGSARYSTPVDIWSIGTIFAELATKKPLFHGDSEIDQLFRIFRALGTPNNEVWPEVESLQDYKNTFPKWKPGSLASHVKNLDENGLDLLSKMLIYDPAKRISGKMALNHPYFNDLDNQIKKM
For assay [6], the target named is T4, Cyclin-dependent kinase 9 (Homo sapiens, UniProt P50750). The assay is described as follows: Inhibition of full length recombinant human CDK9 expressed in Insect cell in presence of ATP.
T4 sequence (P50750 whole entry): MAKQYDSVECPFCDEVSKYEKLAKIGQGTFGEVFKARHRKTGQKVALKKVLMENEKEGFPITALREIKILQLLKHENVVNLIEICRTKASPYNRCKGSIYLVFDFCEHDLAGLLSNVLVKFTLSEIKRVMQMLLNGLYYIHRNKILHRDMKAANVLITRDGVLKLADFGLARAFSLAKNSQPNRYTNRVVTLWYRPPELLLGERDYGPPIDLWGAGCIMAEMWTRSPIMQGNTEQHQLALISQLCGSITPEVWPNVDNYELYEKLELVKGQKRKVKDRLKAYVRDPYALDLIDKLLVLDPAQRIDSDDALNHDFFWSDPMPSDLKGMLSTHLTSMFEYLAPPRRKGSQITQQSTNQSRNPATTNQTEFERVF
Assay [7] concerns the target T2, Cyclin-dependent kinase 7. Nature of the assay: Inhibition of full length recombinant human CDK7 expressed in Insect cell in presence of ATP.
Assay [8] deals with Cyclin-dependent kinase 2 (Homo sapiens, UniProt P24941). The assay is described as follows: Inhibition of full length recombinant human CDK2 expressed in Insect cell in presence of ATP.
Assay [9] addresses T1, Cyclin-dependent kinase 12. Nature of the assay: Inhibition of GST-tagged recombinant human CDK12 (696 to 1082 residues) expressed in Insect cell in presence of ATP by high ATP assay.
Assay [10] has as its target T1, Cyclin-dependent kinase 12. The assay is described as follows: Inhibition of GST-tagged recombinant human CDK12 (696 to 1082 residues) expressed in Insect cell in presence of ATP by Km ATP assay.
Assay [11] concerns the target T4, Cyclin-dependent kinase 9.
Description: Binding affinity to CDK9 (unknown origin) assessed as dissociation constant
The target of assay [12] is Cyclin-dependent kinase 6 (Homo sapiens, UniProt Q00534).
Sequence of Cyclin-dependent kinase 6 (Q00534 whole entry): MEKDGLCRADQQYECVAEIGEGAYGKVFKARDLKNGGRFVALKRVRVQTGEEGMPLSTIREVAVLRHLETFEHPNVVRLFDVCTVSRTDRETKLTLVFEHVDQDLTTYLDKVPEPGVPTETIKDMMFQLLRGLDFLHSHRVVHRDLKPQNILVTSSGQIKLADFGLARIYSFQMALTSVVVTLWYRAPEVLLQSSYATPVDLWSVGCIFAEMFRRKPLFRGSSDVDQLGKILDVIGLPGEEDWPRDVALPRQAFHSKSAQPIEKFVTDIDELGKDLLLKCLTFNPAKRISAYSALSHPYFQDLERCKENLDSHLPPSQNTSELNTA
Description: Binding affinity to CDK6 (unknown origin) assessed as dissociation constant
Assay [13] in a line: Antiproliferative activity against human Neuroblastoma cell assessed as […] measured after 72 hrs. In kind it is functional, cell-based.
The test system of a further assay is Lung cancer cell line. Nature of the assay: Antiproliferative activity against human Lung cancer cell line assessed as […] measured after 72 hrs. In kind it is functional, cell-based.
The target of assay [14] is Cyclin-dependent kinase 12 (Mus musculus, UniProt Q14AX6). Nature of the assay: Inhibition of CDK12 in mouse OV2944-HM-1 cells by Westernblot analysis. In kind it is cell-based.
Sequence of Cyclin-dependent kinase 12 (Mus musculus, UniProt Q14AX6) (Q14AX6 whole entry): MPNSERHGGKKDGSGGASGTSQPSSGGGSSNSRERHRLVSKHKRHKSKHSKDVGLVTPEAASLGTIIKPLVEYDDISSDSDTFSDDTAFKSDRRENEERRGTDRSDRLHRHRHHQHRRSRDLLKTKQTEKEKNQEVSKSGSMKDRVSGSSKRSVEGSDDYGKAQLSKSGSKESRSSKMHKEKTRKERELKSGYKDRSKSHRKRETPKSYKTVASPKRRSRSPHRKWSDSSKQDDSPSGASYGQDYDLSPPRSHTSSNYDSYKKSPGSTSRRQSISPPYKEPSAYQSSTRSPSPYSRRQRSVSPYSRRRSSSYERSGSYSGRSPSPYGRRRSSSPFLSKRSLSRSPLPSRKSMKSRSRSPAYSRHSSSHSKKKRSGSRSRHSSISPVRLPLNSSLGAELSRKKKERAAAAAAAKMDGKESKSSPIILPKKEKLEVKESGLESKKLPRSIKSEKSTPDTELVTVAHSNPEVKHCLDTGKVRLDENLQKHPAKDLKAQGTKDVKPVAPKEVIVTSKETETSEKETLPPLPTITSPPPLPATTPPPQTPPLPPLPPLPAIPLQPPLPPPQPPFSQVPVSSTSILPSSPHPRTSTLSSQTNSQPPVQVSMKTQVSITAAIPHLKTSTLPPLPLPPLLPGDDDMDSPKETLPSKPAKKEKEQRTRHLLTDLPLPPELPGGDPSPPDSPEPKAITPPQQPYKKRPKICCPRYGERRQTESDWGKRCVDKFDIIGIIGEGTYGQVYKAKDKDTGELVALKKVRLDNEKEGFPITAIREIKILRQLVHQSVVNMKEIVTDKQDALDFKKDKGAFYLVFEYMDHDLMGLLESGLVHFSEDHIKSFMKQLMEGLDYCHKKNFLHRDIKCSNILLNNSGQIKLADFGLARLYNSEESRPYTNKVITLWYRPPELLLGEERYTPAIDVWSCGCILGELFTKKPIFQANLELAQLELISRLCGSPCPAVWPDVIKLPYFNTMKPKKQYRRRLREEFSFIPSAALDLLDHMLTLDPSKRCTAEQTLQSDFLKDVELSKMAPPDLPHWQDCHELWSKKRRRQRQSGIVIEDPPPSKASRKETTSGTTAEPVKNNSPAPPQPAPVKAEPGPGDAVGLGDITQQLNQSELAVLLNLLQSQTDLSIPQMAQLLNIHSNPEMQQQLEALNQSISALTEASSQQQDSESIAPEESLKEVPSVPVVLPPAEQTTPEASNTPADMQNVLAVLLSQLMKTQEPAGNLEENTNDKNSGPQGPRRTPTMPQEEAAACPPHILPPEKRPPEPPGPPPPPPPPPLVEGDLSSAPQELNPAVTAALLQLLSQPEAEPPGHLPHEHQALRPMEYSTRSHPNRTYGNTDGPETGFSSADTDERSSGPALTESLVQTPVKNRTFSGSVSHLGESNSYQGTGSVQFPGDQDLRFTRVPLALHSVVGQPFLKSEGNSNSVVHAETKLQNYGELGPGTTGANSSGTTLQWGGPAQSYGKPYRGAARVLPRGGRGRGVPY
Assay [15] has as its target T3, Protein cereblon/Cyclin-dependent kinase 12. Nature of the assay: Protac activity at CRBN/CDK12 in human MOLT-4 cells assessed as […] by Westernblot analysis. The assay is classed as cell-based.
Assay [16] deals with T4, Cyclin-dependent kinase 9. Nature of the assay: Inhibition of recombinant human CDK9 expressed in baculovirus infected Insect cell measured after 30 mins by scintillation counter analysis.

T2 sequence (P50613 whole entry): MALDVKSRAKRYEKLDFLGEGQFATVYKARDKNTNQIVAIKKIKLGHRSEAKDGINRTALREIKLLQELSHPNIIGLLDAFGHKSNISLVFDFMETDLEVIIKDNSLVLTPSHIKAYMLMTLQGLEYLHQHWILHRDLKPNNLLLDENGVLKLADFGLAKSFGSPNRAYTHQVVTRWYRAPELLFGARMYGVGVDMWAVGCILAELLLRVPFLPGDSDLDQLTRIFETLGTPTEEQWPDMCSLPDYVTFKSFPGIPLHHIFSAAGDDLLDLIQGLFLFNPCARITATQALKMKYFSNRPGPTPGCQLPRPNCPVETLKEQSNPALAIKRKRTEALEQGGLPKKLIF
T1 sequence (Q9NYV4 whole entry): as the sequence (Q9NYV4 whole entry) above

Take `CN(C)C/C=C/C(O)Nc1ccc(C(=O)Nc2cccc(Nc3ncc(Cl)c(-c4c[nH]c5ccccc45)n3)c2)cc1` (stereo not drawn): the values for the IC50 in assay [1], in assay [2] and in assay [3] were 893 nM, 238 nM and 628 nM, respectively.
Turning to `CC(C)S(=O)(=O)c1ccccc1Nc1nc(N[C@H]2CCCN(CCCCCCCNC(=O)COc3cccc4c3C(=O)N(C3CCC(=O)NC3=O)C4=O)C2)ncc1Cl` (stereo partly drawn), the IC50 in [4] amounted to 6 nM.
With `CCc1cnn2c(NCc3nc4ccc(F)c(F)c4[nH]3)cc(N3CCCC[C@H]3CCO)nc12`, the IC50 in [5] stood at 3410 nM; in assay [6] it was 240 nM; in assay [7], 21200 nM; in assay [8], 40 nM; in [9], 47 nM; in [10] it was 22 nM.
Take `Cn1cc(-n2cnc3c(NCc4nc5cc(Cl)c(Cl)cc5[nH]4)nc(N4CCOCC4)nc32)cn1`: the Kd in assay [11] was more than 10000 nM; in assay [12], 5100 nM.
Turning to `C=CC(=O)Nc1cccc(Nc2nc(N3CCCC[C@H]3CCO)nc3c2ncn3CC)c1`, the IC50 (in assay [13]; in the assay with Lung cancer cell line) was 8 nM in each case.
Compound `O=C(CN1CCC[C@@H](Nc2ncc(Cl)c(-c3c[nH]c4ccccc34)n2)C1)Nc1ccc([As]2SCCS2)cc1` gave a concentration giving a half-maximal response (EC50) in assay [14] of 32 nM.
As for `Clc1cnc(N[C@H]2CCCNC2)nc1-c1c[nH]c2ccccc12`, the IC50 in assay [15] was determined as 107 nM.
As to `CN(C)C/C=C/C(=O)Nc1ccc(C(=O)N2CCC[C@@H](Nc3ncc(Cl)c(-c4c[nH]c5ccccc45)n3)C2)cc1`, the IC50 in assay [16] is 10500 nM.
With `O=C(COc1cccc2c1C(=O)N(C1CCC(=O)NC1=O)C2=O)NCCCCCCCN1CCC[C@H](Nc2ncc(Cl)c(-c3c[nH]c4ccccc34)n2)C1` (stereo partly drawn), in [15], the IC50 worked out at 9 nM.
As to `CCn1cnc2c(NCc3nc4ccc(F)c(F)c4[nH]3)nc(N3CCCC[C@H]3CCO)nc21`, the IC50 in assay [5] is 28600 nM; in [7], more than 30000 nM; in assay [10] it was 14 nM.
Regarding `CC(C)n1cnc2c(NCc3nc4ccc(F)c(F)c4[nH]3)nc(N3CCCC[C@H]3CCO)nc21`, in assay [10], the IC50 was found to be 31 nM.
`O=C(CN1CCC[C@@H](Nc2ncc(Cl)c(-c3c[nH]c4ccccc34)n2)C1)Nc1ccc([As](O)O)cc1`: the EC50 in assay [14] was determined as 35 nM.
